Assay results published in US20070254312A1, “Protein Kinase Inhibitors and Methods for Identiying Same” (priority 2004, published 2007).
Starred links: 1 amine or outer side, 2 acyl side, 3 side chain; linkers in the order of their positions; H or OH if unused. Non-standard residues stand in square brackets, D forms with d. Residues, ends and D or L forms follow the SMILES beside them. *: point of attachment. Benzoyl(4-(pyrrol-1-yl)) = O=C(c1ccc(-n2cccc2)cc1)*; Phenylacetyl(3,4-Cl2) = O=C(Cc1ccc(Cl)c(Cl)c1)*; Cysteamide = C(CS[*:3])N[*:1]; Dap = NC[C@H](N)C(=O)O

Key:
[1] = target: T1, PKCβ (Homo sapiens, UniProt P05771); experiment: PKC isoform assay, Example 1; assay type: biochemical
T1 construct: purchased Pan Vera
T1 sequence (P05771 whole entry, canonical isoform): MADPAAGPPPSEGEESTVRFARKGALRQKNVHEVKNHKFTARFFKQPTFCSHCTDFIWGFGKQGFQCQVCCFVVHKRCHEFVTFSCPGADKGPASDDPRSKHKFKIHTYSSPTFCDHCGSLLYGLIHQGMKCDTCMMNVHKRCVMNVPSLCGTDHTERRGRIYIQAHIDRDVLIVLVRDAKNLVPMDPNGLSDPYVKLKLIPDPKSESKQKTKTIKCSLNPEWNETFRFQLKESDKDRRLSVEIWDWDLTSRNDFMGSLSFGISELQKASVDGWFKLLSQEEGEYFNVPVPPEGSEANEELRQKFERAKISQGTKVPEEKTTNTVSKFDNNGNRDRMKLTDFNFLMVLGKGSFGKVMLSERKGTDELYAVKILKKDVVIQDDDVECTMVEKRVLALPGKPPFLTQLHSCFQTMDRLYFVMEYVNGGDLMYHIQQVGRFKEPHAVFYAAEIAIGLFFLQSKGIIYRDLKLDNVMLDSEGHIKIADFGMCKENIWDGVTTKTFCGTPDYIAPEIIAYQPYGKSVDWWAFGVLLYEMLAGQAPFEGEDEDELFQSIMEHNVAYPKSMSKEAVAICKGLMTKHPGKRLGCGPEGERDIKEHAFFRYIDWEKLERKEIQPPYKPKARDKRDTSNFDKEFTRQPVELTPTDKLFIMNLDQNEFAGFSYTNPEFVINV
Procedure: (§1) Protein Kinase C Assay (general). The peptides […] (for PKC α, β and γ) and acetyl-[…] (for PKC ε and ζ) were used as substrates. […] Total reaction volume was 50 μL. […] Following an additional 5 min incubation at ambient temperature, 75 μL from each reaction well was transferred into each well of a Unifilter (P81 cellulose phosphate paper) assay plate and washed four times with 0.1% phosphoric acid in water. […] IC50 values were calculated using GraFit (Erithacus Software Limited) and Ki values were calculated using Enzyme Kinetics, SigmaPlot (SPSS Inc.)

[2] = target: PKCα (Homo sapiens, UniProt P17252); conditions: cited from earlier work
[3] = target: PKC β1 (Homo sapiens, UniProt P05771); conditions: literature values; relative to most potently inhibited isoform (=1); cited from earlier work
Sequence of PKC β1 (P05771 whole entry, canonical isoform): as the sequence (P05771 whole entry, canonical isoform) above

[4] = target: PKCγ (Homo sapiens, UniProt P05129); experiment: PKC isoform assay, Example 1; assay type: biochemical; set-up: purchased Pan Vera
Procedure: as §1

[5] = target: T2, PKCδ (Homo sapiens, UniProt Q05655); experiment: PKC isoform assay, Example 1; assay type: biochemical; set-up: purchased Pan Vera
T2 sequence (Q05655 whole entry, canonical isoform): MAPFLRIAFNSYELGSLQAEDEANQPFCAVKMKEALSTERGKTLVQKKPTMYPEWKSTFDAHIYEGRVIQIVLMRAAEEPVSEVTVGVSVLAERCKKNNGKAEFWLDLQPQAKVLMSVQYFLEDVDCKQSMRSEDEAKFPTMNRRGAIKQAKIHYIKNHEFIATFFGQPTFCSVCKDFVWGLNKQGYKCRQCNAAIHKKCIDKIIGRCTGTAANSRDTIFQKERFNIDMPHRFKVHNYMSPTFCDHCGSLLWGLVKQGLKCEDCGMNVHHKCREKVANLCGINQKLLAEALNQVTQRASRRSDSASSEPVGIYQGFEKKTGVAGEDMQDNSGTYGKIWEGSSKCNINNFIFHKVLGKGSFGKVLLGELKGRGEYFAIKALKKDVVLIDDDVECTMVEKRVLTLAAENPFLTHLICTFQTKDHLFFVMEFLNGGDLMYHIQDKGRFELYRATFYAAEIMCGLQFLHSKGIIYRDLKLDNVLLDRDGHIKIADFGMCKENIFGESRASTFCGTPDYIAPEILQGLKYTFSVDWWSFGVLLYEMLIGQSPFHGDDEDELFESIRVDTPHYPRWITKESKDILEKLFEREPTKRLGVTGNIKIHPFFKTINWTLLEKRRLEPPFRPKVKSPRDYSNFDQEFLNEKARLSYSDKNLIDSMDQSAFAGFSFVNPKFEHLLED
Source text: (§2) Protein Kinase C Assay (general). The peptides Ac-Ser-Phe-Arg-Arg-Arg-NH2 (for PKC α, β and γ) and acetyl-[…]NH2 (for PKC ε and ζ) were used as substrates.

[6] = target: PKCη (Homo sapiens, UniProt P24723); experiment: PKC isoform assay, Example 1; assay type: biochemical; set-up: purchased Pan Vera
Sequence of PKCη (P24723 whole entry, canonical isoform): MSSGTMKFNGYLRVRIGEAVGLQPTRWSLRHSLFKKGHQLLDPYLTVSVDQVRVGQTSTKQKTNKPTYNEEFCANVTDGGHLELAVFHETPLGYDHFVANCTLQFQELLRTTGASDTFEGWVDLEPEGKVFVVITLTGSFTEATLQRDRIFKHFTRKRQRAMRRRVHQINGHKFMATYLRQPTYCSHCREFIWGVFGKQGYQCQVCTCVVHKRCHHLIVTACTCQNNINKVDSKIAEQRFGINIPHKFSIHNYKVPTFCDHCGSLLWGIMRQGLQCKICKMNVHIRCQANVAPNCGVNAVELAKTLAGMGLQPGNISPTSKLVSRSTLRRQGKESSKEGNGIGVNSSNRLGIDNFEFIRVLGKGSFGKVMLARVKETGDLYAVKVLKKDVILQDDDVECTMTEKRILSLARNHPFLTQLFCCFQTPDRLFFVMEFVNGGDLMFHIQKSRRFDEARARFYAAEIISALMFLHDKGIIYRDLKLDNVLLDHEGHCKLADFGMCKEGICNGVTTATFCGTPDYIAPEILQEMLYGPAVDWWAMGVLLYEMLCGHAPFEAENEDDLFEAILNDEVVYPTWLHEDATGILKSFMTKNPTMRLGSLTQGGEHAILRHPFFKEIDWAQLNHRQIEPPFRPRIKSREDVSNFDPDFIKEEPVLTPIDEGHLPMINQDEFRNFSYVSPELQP
Source text: as §2

[7] = target: T3, PKCθ (Homo sapiens, UniProt Q04759); experiment: PKC isoform assay, Example 1; assay type: biochemical; set-up: purchased Pan Vera
T3 sequence (Q04759 whole entry, canonical isoform): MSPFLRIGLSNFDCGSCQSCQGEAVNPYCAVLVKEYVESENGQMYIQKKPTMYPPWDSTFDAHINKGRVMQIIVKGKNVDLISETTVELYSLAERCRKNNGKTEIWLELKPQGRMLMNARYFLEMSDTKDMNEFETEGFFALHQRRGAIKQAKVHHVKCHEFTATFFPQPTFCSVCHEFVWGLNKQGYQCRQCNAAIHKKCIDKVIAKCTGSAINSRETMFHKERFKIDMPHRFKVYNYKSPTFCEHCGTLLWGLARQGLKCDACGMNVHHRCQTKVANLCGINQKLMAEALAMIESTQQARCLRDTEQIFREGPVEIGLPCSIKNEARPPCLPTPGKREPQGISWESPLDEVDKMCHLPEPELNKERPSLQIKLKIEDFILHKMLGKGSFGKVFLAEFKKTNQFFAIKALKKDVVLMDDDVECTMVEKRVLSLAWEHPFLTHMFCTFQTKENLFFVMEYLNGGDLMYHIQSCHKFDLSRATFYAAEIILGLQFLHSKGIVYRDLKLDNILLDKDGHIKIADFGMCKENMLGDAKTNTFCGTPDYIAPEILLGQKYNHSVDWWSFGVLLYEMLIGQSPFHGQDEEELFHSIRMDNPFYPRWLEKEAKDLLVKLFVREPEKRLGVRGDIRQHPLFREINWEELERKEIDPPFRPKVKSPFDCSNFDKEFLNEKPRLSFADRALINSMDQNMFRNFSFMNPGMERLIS
Source text: as §2

[8] = target: T4, PKCε (Homo sapiens, UniProt Q02156); experiment: PKC isoform assay, Example 1; assay type: biochemical; set-up: purchased Pan Vera
T4 sequence (Q02156 1-737): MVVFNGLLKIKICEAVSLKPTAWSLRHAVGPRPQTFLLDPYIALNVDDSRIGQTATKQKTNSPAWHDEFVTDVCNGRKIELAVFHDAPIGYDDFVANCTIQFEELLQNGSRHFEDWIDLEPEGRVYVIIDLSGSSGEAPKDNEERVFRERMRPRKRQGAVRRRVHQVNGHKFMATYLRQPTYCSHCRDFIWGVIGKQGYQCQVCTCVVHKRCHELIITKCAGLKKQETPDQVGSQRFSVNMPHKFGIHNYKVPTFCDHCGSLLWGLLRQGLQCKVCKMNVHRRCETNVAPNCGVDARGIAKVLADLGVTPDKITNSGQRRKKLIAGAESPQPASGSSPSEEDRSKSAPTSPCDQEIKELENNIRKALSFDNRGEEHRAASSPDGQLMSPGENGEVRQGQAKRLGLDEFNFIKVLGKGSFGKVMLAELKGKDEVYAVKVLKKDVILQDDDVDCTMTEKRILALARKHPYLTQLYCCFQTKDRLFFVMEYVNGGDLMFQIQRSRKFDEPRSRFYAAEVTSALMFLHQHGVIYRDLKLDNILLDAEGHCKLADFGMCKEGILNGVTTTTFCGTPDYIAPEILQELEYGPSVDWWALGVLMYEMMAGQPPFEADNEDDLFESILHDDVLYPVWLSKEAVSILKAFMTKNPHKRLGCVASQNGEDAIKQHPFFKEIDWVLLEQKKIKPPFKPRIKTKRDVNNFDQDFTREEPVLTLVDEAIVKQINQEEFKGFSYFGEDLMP
Procedure: as §2
(§3) PKCε and ζ Assay (IC50 determinations). […] 10 μL enzyme diluted buffer containing 10 mM HEPES (pH 7.5), 10 mM DTT, BSA(3.8 mg/mL), 10 mM EDTA.4Na.2H2O and PKC (20 ng/μL) were added last to this buffer. Reactions were carried out as described above for the Protein Kinase Cα assay.

[9] = target: T5, PKCζ (Homo sapiens, UniProt Q05513); experiment: PKC isoform assay, Example 1; assay type: biochemical; set-up: purchased Pan Vera
T5 sequence (Q05513 1-592): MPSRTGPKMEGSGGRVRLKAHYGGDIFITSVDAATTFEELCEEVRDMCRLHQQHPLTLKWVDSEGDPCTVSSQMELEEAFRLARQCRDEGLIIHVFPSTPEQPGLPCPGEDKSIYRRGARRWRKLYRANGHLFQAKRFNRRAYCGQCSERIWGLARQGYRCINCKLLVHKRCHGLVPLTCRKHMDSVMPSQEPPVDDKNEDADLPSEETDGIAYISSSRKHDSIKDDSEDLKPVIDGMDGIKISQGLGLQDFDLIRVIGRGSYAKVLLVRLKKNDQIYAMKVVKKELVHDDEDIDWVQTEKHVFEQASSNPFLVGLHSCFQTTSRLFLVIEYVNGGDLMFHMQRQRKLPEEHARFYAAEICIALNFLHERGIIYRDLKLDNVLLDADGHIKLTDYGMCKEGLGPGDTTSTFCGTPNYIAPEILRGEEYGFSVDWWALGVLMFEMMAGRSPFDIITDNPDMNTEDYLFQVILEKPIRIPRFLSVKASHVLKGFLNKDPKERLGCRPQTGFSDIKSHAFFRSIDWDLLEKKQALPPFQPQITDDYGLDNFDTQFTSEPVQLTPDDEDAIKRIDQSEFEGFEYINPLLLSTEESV
Procedure: as §2, §3

[10] = target: T2, PKCδ; set-up: purchased Panvera; conditions: literature values; relative to most potently inhibited isoform (=1); cited from earlier work
[11] = target: T4, PKCε; set-up: purchased Panvera; conditions: literature values; relative to most potently inhibited isoform (=1); cited from earlier work
[12] = target: T3, PKCθ; set-up: purchased Panvera; conditions: literature values; relative to most potently inhibited isoform (=1); cited from earlier work

Compound: CC(C)C[C@H](NC(=O)[C@H](C)NC(=O)CNC(=O)[C@H](CCCNC(=N)N)NC(=O)[C@H](CCCNC(=N)N)NC(=O)[C@H](C)NC(=O)Cc1ccc(Cl)c(Cl)c1)C(=O)N[C@@H](CCCNC(=N)N)C(=O)N[C@@H](CNC(=O)c1ccc(-n2cccc2)cc1)C(=O)N[C@@H](C)C(=O)NCCS [Compound 6] ({Phenylacetyl(3,4-Cl2)}-ARRGALR[Dap](Benzoyl(4-(pyrrol-1-yl)))A-Cysteamide)
- selectivity for PKCα versus PKCβ [1]: 385 fold
- Ki ([2]; Lee et al., 2004, equals the Ki of compound 6 in Table 1, read-out: IC50 or Ki of the most potently inhibited isoform, PKC α (in parentheses)): 0.8 nM
- Fold selectivity (IC50), PKC α ([2]; literature values, relative to most potently inhibited isoform (=1)): 1 fold
- Fold selectivity (IC50), PKC β1 [3]: 385 fold
- selectivity for PKCα versus PKCγ [4]: 580 fold
- selectivity for PKCα versus PKCδ [5]: 2730 fold
- selectivity for PKCα versus PKCη [6]: 1310 fold
- selectivity for PKCα versus PKCθ [7]: 1210 fold
- selectivity for PKCα versus PKCε [8]: 600 fold
- selectivity for PKCα versus PKCζ [9]: 640 fold
- Fold selectivity (IC50), PKC δ [10]: 2730 fold
- Fold selectivity (IC50), PKC ε [11]: 600 fold
- Fold selectivity (IC50), PKC θ [12]: 1210 fold
